Patent US12606541B2, “PPARg modulators and methods of use” (Eisai R&D Management Co., Ltd., priority 2020, dated 2026)
Like-named read-outs stand apart in the source and are kept apart here.

Legend:
UM-UC-9 engineered cells = test: Cell proliferation / short-term viability assay, CellTiter-Glo 144 h; type: cell-based, human; settings: read-out: CTGlo 144 h UMUC9.5, G150
Method in brief: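 Viability read by CellTiter-Glo 2.0 luminescence at day 7 versus DMSO-vehicle wells and a T0 plate measured on day 0. Cells: UM-UC-9 engineered assay-ready stocks, 500 cells/well in high-glucose DMEM with 10% FBS, 37° C, 5% CO2.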

His6-TEV-PPARγ-(234-505) = molecular target: T1, His6-TEV-PPARγ-(234-505) (Homo sapiens, UniProt P37231); test: TR-FRET Assay to Measure Co-R Peptide Recruitment to PPARγ; type: biochemical; settings: Co-R peptide (SMRT-ID2) recruitment; top final concentration 20 μM; read-out: TR-FRET i-Ag; AC50
T1 construct: The His6-TEV-PPARγ-(234-505) protein for assay was expressed and purified; TEV cleavage site (N); made in house
T1 sequence (P37231 234-505): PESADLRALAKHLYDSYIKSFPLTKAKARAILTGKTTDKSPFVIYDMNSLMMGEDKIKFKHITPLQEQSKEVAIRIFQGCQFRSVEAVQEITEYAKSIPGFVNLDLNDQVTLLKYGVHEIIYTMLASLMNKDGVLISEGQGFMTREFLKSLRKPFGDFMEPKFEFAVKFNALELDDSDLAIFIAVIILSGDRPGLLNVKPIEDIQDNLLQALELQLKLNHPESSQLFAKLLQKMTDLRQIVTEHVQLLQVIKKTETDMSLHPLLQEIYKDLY
Method in brief: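 Corepressor recruitment is measured by adding terbium-labeled anti-His antibody and FITC SMRT-ID2 peptide, at 5 and 200 nM final, after a 20-minute room-temperature protein–compound incubation. After one further hour, signal is converted to percent response between DMSO and 500 nM T0070907 wells.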

AC50 (His6-TEV-PPARγ-(234-505))	SMILES	IC50 (UM-UC-9 engineered cells; Homo sapiens, UM-UC-9, 144 h)	IC50 (UM-UC-9 engineered cells)
2.9 nM	COc1cc(-c2cc(C(=O)N3CC[C@H](C(=O)Nc4cnn5c4OC(C)(C)CC5)CC34CC4)n[nH]2)c(F)cn1 [Example 498, (S)—N-(5,5-dimethyl-6,7-dihydro-5H-pyrazolo[5,1-b][1,3]oxazin-3-yl)-4-(5-(5-fluoro-2-methoxypyridin-4-yl)-1H-pyrazole-3-carbonyl)-4-azaspiro[2.5]octane-7-carboxamide]	21.9 nM	
294 nM	COc1cc(-c2cc(C(=O)N3CC[C@H](C(=O)NCC45COC(CN)(C4)C5)CC34CC4)n[nH]2)c(F)cn1 [Example 499, (S)—N-((1-(aminomethyl)-2-oxabicyclo[2.1.1]hexan-4-yl)methyl)-4-(5-(5-fluoro-2-methoxypyridin-4-yl)-1H-pyrazole-3-carbonyl)-4-azaspiro[2.5]octane-7-carboxamide]	> 10000 nM	
7.5 nM	COc1cc(-c2cc(C(=O)N3CC[C@H](C(=O)NCc4cccnc4C(F)(F)F)CC34CC4)[nH]n2)c(F)cn1 [Example 500, (S)-4-(3-(5-fluoro-2-methoxypyridin-4-yl)-1H-pyrazole-5-carbonyl)-N-((2-(trifluoromethyl)pyridin-3-yl)methyl)-4-azaspiro[2.5]octane-7-carboxamide]	13.3 nM	
8.1 nM	COc1cc(-c2cc(C(=O)N3CC[C@H](C(=O)NCc4[nH]cnc4C(F)(F)F)CC34CC4)[nH]n2)c(F)cn1 [Example 503, (S)-4-(3-(5-fluoro-2-methoxypyridin-4-yl)-1H-pyrazole-5-carbonyl)-N-((4-(trifluoromethyl)-1H-imidazol-5-yl)methyl)-4-azaspiro[2.5]octane-7-carboxamide]	146 nM	
6.9 nM	COc1cc(-c2cc(C(=O)N3CC[C@H](C(=O)NCc4conc4C(F)(F)F)CC34CC4)[nH]n2)c(F)cn1 [Example 505, (S)-4-(3-(5-fluoro-2-methoxypyridin-4-yl)-1H-pyrazole-5-carbonyl)-N-((3-(trifluoromethyl)isoxazol-4-yl)methyl)-4-azaspiro[2.5]octane-7-carboxamide]	10.3 nM	
17.4 nM	COc1cc(-c2cc(C(=O)N3CC[C@H](C(=O)NCc4c(C(F)(F)F)cnn4C)CC34CC4)[nH]n2)c(F)cn1 [Example 507, (S)-4-(3-(5-fluoro-2-methoxypyridin-4-yl)-1H-pyrazole-5-carbonyl)-N-((1-methyl-4-(trifluoromethyl)-1H-pyrazol-5-yl)methyl)-4-azaspiro[2.5]octane-7-carboxamide]	14.1 nM	
5.6 nM	COc1cc(-c2cc(C(=O)N3CC[C@H](C(=O)NCc4nnn(C)c4C(F)(F)F)CC34CC4)[nH]n2)c(F)cn1 [Example 508, (S)-4-(3-(5-fluoro-2-methoxypyridin-4-yl)-1H-pyrazole-5-carbonyl)-N-((1-methyl-5-(trifluoromethyl)-1H-1,2,3-triazol-4-yl)methyl)-4-azaspiro[2.5]octane-7-carboxamide]	8.5 nM	
4.2 nM	COc1cc(-c2cc(C(=O)N3CC[C@H](C(=O)NCc4cn(C)nc4C(F)(F)F)CC34CC4)[nH]n2)c(F)cn1 [Example 509, (S)-4-(3-(5-fluoro-2-methoxypyridin-4-yl)-1H-pyrazole-5-carbonyl)-N-((1-methyl-3-(trifluoromethyl)-1H-pyrazol-4-yl)methyl)-4-azaspiro[2.5]octane-7-carboxamide]	7 nM	
3.8 nM	COc1cc(-c2cc(C(=O)N3CC[C@H](C(=O)NCc4ncccc4C(F)(F)F)CC34CC4)[nH]n2)c(F)cn1 [Example 510, (S)-4-(3-(5-fluoro-2-methoxypyridin-4-yl)-1H-pyrazole-5-carbonyl)-N-((3-(trifluoromethyl)pyridin-2-yl)methyl)-4-azaspiro[2.5]octane-7-carboxamide]	1.8 nM	
11.2 nM	COc1cc(-c2cc(C(=O)N3CC[C@H](C(=O)NCc4ncc(F)cn4)CC34CC4)[nH]n2)c(F)cn1 [Example 512, (S)-4-(3-(5-fluoro-2-methoxypyridin-4-yl)-1H-pyrazole-5-carbonyl)-N-((5-fluoropyrimidin-2-yl)methyl)-4-azaspiro[2.5]octane-7-carboxamide]	97.2 nM	
6.1 nM	COc1cc(-c2cc(C(=O)N3CC[C@H](C(=O)NCc4cccnc4C(F)(F)F)CC34CC4)[nH]n2)c(F)cn1 [Example 513, (S)-4-(3-(5-fluoro-2-methoxypyridin-4-yl)-1H-pyrazole-5-carbonyl)-N-((2-(trifluoromethyl)pyridin-3-yl)methyl)-4-azaspiro[2.5]octane-7-carboxamide]		15.4 nM
5 nM	COc1cc(-c2cc(C(=O)N3CC[C@H](C(=O)NCC45CC(C(F)(F)F)(C4)C5)CC34CC4)[nH]n2)c(F)cn1 [Example 515, (S)-4-(3-(5-fluoro-2-methoxypyridin-4-yl)-1H-pyrazole-5-carbonyl)-N-((3-(trifluoromethyl)bicyclo[1.1.1]pentan-1-yl)methyl)-4-azaspiro[2.5]octane-7-carboxamide]	6 nM	
3.3 nM	COc1cc(-c2cc(C(=O)N3CC[C@H](C(=O)NCc4cnccc4C(F)(F)F)CC34CC4)n[nH]2)c(F)cn1 [Example 516, (S)-4-(5-(5-fluoro-2-methoxypyridin-4-yl)-1H-pyrazole-3-carbonyl)-N-((4-(trifluoromethyl)pyridin-3-yl)methyl)-4-azaspiro[2.5]octane-7-carboxamide]	10 nM	
7.9 nM	COc1cc(-c2cc(C(=O)N3CC[C@H](C(=O)NCc4sc(C)nc4C(F)(F)F)CC34CC4)[nH]n2)c(F)cn1 [Example 517, (S)-4-(3-(5-fluoro-2-methoxypyridin-4-yl)-1H-pyrazole-5-carbonyl)-N-((2-methyl-4-(trifluoromethyl)thiazol-5-yl)methyl)-4-azaspiro[2.5]octane-7-carboxamide]	20.3 nM	
4.3 nM	COc1cc(-c2cc(C(=O)N3CC[C@H](C(=O)NCc4nccn4C(F)(F)F)CC34CC4)[nH]n2)c(F)cn1 [Example 519, (S)-4-(3-(5-fluoro-2-methoxypyridin-4-yl)-1H-pyrazole-5-carbonyl)-N-((1-(trifluoromethyl)-H-imidazol-2-yl)methy)-4-azaspiro[2.5]octane-7-carboxamide]	19.1 nM	
784 nM	COc1cc(-c2cc(C(=O)N3CC[C@H](C(=O)NC45COC(CO)(C4)C5)CC34CC4)n[nH]2)c(F)cn1 [Example 520, (S)-4-(5-(5-fluoro-2-methoxypyridin-4-yl)-1H-pyrazole-3-carbonyl)-N-(1-(hydroxymethyl)-2-oxabicyclo[2.1.1]hexan-4-yl)-4-azaspiro[2,5]octane-7-carboxamide]	> 10000 nM	
1.8 nM	COc1cc(-c2cc(C(=O)N3CC[C@H](C(=O)NCc4ncc(N5CCN(C)CC5)cc4Cl)CC34CC4)n[nH]2)c(F)cn1 [Example 521, (S)—N-((3-chloro-5-(4-methylpiperazin-1-yl)pyridin-2-yl)methyl)-4-(5-(5-fluoro-2-methoxypyridin-4-yl)-1H-pyrazole-3-carbonyl)-4-azaspiro[2.5]octane-7-carboxamide]	19.8 nM	
1.4 nM	COc1cc(-c2cc(C(=O)N3CC[C@H](C(=O)NCc4ccc5c(c4)B(O)OC5(C)C)CC34CC4)[nH]n2)c(F)cn1 [Example 522, (S)-4-(3-(5-fluoro-2-methoxypyridin-4-yl)-1H-pyrazole-5-carbonyl)-N-((1-hydroxy-3,3-dimethyl-1,3-dihydrobenzo[c][1,2]oxaborol-6-yl)methyl)-4-azaspiro[2.5]octane-7-carboxamide]	14.3 nM	
5.3 nM	COc1cc(-c2cc(C(=O)N3CC[C@H](C(=O)Nc4ccc5c(c4)COB5O)CC34CC4)[nH]n2)c(F)cn1 [Example 523, (S)-4-(3-(5-fluoro-2-methoxypyridin-4-yl)-1H-pyrazole-5-carbonyl)-N-(1-hydroxy-1,3-dihydrobenzo[c][1,2]oxaborol-5-yl)-4-azaspiro[2.5]octane-7-carboxamide]	54.3 nM	
7 nM	COc1cc(-c2cc(C(=O)N3CC[C@H](C(=O)NCc4ccncc4C(F)(F)F)CC34CC4)[nH]n2)c(F)cn1 [Example 525, (S)-4-(3-(5-fluoro-2-methoxypyridin-4-yl)-1H-pyrazole-5-carbonyl)-N-((3-(trifluoromethyl)pyridin-4-yl)methyl)-4-azaspiro[2.5]octane-7-carboxamide]	19 nM	
3.7 nM	COc1cc(-c2cc(C(=O)N3CC[C@H](C(=O)NCc4c(C(F)(F)F)nn(C)c4Cl)CC34CC4)[nH]n2)c(F)cn1 [Example 526, (S)—N-((5-chloro-1-methyl-3-(trifluoromethyl)-1H-pyrazol-4-yl)methyl)-4-(3-(5-fluoro-2-methoxypyridin-4-yl)-1H-pyrazole-5-carbonyl)-4-azaspiro[2.5]octane-7-carboxamide]	7.1 nM	
